From patent US20160229835A1, “NOVEL PYRIDYLOXYACETYL TETRAHYDROISOQUINOLINE COMPOUNDS USEFUL AS NAMPT INHIBITORS” (ELI LILLY AND COMPANY, priority 2013, published 2016) come the findings set out here.

Test [1] deals with MCF-7 (breast cancer) cells. Put plainly: Cell Viability Assay, MCF-7. The conditions noted are these: Homo sapiens, MCF7, 72 hours. Type of test: cell-based. As for the experimental part: (§1) The purpose of this assay is to measure the ability of a compound to reduce viability of different cancer cells dependent on the NAMPT-mediated NAD^+ formation in vitro. HCC1937 (breast cancer) cells are cultured in RPMI-1640 supplemented with 10% FBS. Calu-6 (lung cancer) cells and MCF-7 (breast cancer) cells are cultured in Minimum Essential Medium (MEM) (Gibco11095) supplemented with 1 mM sodium pyruvate (Gibco 11360), 1% Non-Essential Amino Acids Solution (100×; Gibco 11140) and 10% FBS. NCI-H1155 (lung cancer) cells are cultured in Dulbecco's Modified Eagle Medium (DMEM) (Gibco 11965) with 10% FBS. […] Cell viability is analyzed by using an assay kit (CYTOTOX-GLO™ Cytotoxicity Assay kit, Promega) according to the manufacturer's instructions as follows. […] Luminescence is measured using a Wallac Victor3 V 1420 Multilabel Counter (Perkin Elmer), referred to as dead cell luminescence. […] After the plate is incubated at room temperature for 15 minutes, luminescence is measured using the plate reader, referred to as total luminescence. Viable cell luminescence (CPS) is calculated by subtracting the dead cell luminescence from the total luminescence Inhibition of cell viability is calculated based on the equation as follows:
(§2) Inhibition (%)=(CPSnegative−CPSsample)/(CPSnegative−CPSpositive)*100 where CPS is the luminescence of viable cells.

Test [2] has as its system H1155 tumor model. Put plainly: Efficacy in Xenograft Tumor Models, NCI-H1155. Type of test: in vivo. The conditions noted are these: nude mice, 4-day-on and 3-day-off schedule for 17 days. As for the experimental part: The purpose of this assay is to measure reduction in tumor volume in response to test compound administration. A2780 and NCI-H1155 (NSCLC) cells are grown as described above for IVTI studies. Cells are harvested and injected subcutaneously onto the rear flank of nude mice. When tumors are established (7-21 days after implant), animals are randomized and grouped into control and test groups (7 animals/group). The test compound is formulated in 20% of CAPTISOL® and 25 mM of phosphate buffer, pH 2. Test compound and vehicle (20% of CAPTISOL® and 25 mM of phosphate buffer, pH 2 without compound) are administered by oral gavage. Tumor response is determined by tumor volume measurement (caliper) performed twice a week during the course of treatment and reported as percent of tumor volume of each treatment group divided by tumor volume of the vehicle control group. […] For example, Example 1 in H1155 tumor model, when dosed at 10 mg/kg (twice a day (BID) on a 4-day-on and 3-day-off schedule for 17 days, a T/C of 5.5 (P value<0.001 based on T-test) is achieved; when dosed at 20 mg/kg on the same schedule, a T/C of −81.1 (P value<0.001 based on T-test) is achieved. Example 2 in H1155 tumor model, when dosed at 8 mg/kg (twice a day (BID) on a 4-day-on and 3-day-off schedule for 17 days, a T/C of 5.2 (P value<0.001 based on T-test) is achieved; when dosed at 16 mg/kg on the same schedule, a T/C of −82.7 (P value<0.001 based on T-test) is achieved. Example 1 in A2780 tumor model, when dosed at 10 mg/kg (twice a day (BID) on a 4-day-on and 3-day-off schedule for 17 days, a T/C of 41.7 (P value<0.007 based on T-test) is achieved; when dosed at 20 mg/kg on the same schedule, a T/C of 2.4 (P value<0.001 based on T-test) is achieved.

Test [3] concerns HCC1937 (breast cancer) cells. Put plainly: Cell Viability Assay, HCC1937. Type of test: cell-based. The note with it: Homo sapiens, 72 hours. The protocol: as §1, §2
In test [4] the target is NAMPT (Homo sapiens, UniProt P43490). The test is described as follows: NAMPT Biochemical Assay (NMN formation by LC-MS). The note with it: relative IC50; 1.5 nM NAMPT, 2 hours at room temperature; read-out: IC50 (inhibition of NAMPT catalytic activity, NMN formation). As for the experimental part:
The purpose of this assay is to measure the ability of a compound to inhibit NAMPT catalytic activity. Reaction mixtures (25 μL) containing 50 mM HEPES at pH 7.5, 50 mM NaCl, 1 mM DTT, 0.005% TRITON® X-100, 1.5 μM phosphoribosyl-pyrophosphate, 0.5 μM nicotinamide (NAM), 1.5 nM NAMPT, 2.5 mM ATP, 1.25 mM MgCl2, 4% (v/v) DMSO and compounds after a ten-point series dilution from either 1 μM to 50 pM or 0.1 μM to 5 pM (final) are prepared. The reaction mixtures are incubated at room temperature for 2 hours. The reaction is terminated by the addition of ACN (25 μL) containing nicotinamide mononucleotide-d4 (NMN-d4) as an internal standard (final concentration: 5 μM). […] A positive control group (enzyme and DMSO, but no compound) is used to measure minimum inhibition (0%) of NMN formation. Percent inhibition of compound treated groups is calculated relative to the minimum inhibition group. The relative IC50 for each compound is calculated from a dose response study and is the concentration necessary to achieve 50% inhibition at this time point using the above disclosed ranges of 1 μM to 50 pM (final). The data generated from the dose-response studies is fit to a four-parameter logistic equation using ACTIVITYBASE 4.0 Equation 205.

The subject of test [5] is NCI-H1155 (lung cancer) cells. The test is described as follows: Cell Viability Assay, NCI-H1155. Type of test: cell-based. The note with it: Homo sapiens, 72 hours. The protocol:
as §1, §2

Sequence of NAMPT (P43490 whole entry): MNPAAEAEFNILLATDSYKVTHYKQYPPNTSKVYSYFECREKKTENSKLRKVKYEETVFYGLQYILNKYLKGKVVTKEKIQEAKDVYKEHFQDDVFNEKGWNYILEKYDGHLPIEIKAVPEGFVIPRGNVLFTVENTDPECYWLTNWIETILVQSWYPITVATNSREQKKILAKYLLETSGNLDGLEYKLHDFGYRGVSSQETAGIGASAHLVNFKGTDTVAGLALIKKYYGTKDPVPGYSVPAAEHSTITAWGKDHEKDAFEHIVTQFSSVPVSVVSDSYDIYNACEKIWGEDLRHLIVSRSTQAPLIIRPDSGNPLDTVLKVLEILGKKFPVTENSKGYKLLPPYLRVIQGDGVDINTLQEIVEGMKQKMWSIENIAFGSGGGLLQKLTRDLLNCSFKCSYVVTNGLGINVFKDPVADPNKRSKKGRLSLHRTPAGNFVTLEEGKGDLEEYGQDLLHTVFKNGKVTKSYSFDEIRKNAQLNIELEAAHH

As to `CC(C)(O)CS(=O)(=O)Nc1ccc2c(c1)CCN(C(=O)COc1cccnc1)C2` [Example 1, 2-Hydroxy-2-methyl-N-[2-[2-(3-pyridyloxy)acetyl]-3,4-dihydro-1H-isoquinolin-6-yl]propane-1-sulfonamide], the IC50 was 389 ± 283 nM in test [1], 333 ± 32 nM in test [3], 3.1 nM in test [4] and 18 ± 3 nM in test [5]. The figures for the “T/C (tumor volume of treatment group divided by vehicle control group)” value in test [2] (10 mg/kg BID oral) and in test [2] (20 mg/kg BID oral) were 5.5% and −81.1%, respectively.
Turning to `COCCS(=O)(=O)Nc1ccc2c(c1)CCN(C(=O)COc1cccnc1)C2` [Example 2, 2-Methoxy-N-[2-[2-(3-pyridyloxy)acetyl]-3,4-dihydro-1H-isoquinolin-6-yl]ethanesulfonamide], the IC50 was found to be 352 ± 252 nM in test [1], 1040 ± 664 nM in test [3], 1.1 nM in test [4] and 37 ± 16 nM in test [5]. The “T/C (tumor volume of treatment group divided by vehicle control group)” value in test [2] (8 mg/kg BID oral) is recorded as 5.2%; in test [2] (16 mg/kg BID oral) it was −82.7%.
